Laboratory results as given in patent publication US20240189279A1, “IMMUNOMODULATORY COMPOSITIONS AND METHODS OF USE THEREOF” (THE TEXAS A&M UNIVERSITY SYSTEM, priority 2022, published 2024).
“Also recorded” adds a separate entry of the source.

Assays:
Format in all cases: in vivo, mice (male B6 129SF1/J)
AMPK = AMPK Western blot analysis of liver tissue of WD mice; details: week 16; dose-dependent, reverses WD-induced downregulation
Source text: Animal experiments. Male B6 129SF1/J mice at 6 weeks of age were obtained from Jackson Laboratories (Bar Harbor, ME). Mice were acclimatized to the animal facility for one week. At the start of the experiment, mice were randomly divided into four groups (n=10 for each group). Three of the four groups were fed ad libitum a Western diet (WD) with 40% Kcal from fat and containing 0.15% cholesterol (D12079B, Research Diets) and a sugar water (SW) solution (23.1 g/L d-fructose+18.9 g/L d-glucose) as previously described (DIAMOND model (15)). After 8 weeks, the three groups of WD-fed mice were randomly selected for treatment with vehicle (WD group) or low (WD-50 group) or high dose (WD-100 group) of […]. The WD group was fed WD and drank sugar water. The WD-50 and WD-100 groups were fed WD and drank sugar water containing, respectively, 50 or 100 mg […] per kg body weight. The treatments were continued for another 8 weeks. Water bottles containing SW and […] or only SW were changed every other day. […] The protein concentration was determined using the BCA protein assay kit (Pierce). […] Proteins were quantified by normalizing the intensity of the protein band of interest to the intensity of the j-actin band in the same lane using the Image Lab software (Bio-Rad, Hercules, CA).

[1] = tested on: fatty acid metabolism enzymes in liver; experiment: Liver targeted proteomics of fatty acid metabolism and antioxidant enzymes in WD mice
Source text: Animal experiments. Male B6 129SF1/J mice at 6 weeks of age were obtained from Jackson Laboratories (Bar Harbor, ME). Mice were acclimatized to the animal facility for one week. At the start of the experiment, mice were randomly divided into four groups (n=10 for each group). Three of the four groups were fed ad libitum a Western diet (WD) with 40% Kcal from fat and containing 0.15% cholesterol (D12079B, Research Diets) and a sugar water (SW) solution (23.1 g/L d-fructose+18.9 g/L d-glucose) as previously described (DIAMOND model (15)). After 8 weeks, the three groups of WD-fed mice were randomly selected for treatment with vehicle (WD group) or low (WD-50 group) or high dose (WD-100 group) of […]. The WD group was fed WD and drank sugar water. The WD-50 and WD-100 groups were fed WD and drank sugar water containing, respectively, 50 or 100 mg […] per kg body weight. The treatments were continued for another 8 weeks. Water bottles containing SW and […] or only SW were changed every other day. A fourth group of mice was fed a low-fat control diet (D12450B, Research Diets) and normal water for 16 weeks (CN group) (FIG. 9A). FIG. 9A presents the study design. Mice belonging to the same treatment group were housed together (5 mice/cage). Mice were maintained on 12:12-h light-dark cycles. All procedures were performed in accordance with Texas A&M University Health Sciences Center Institutional Animal Care and Use Committee guidelines under an approved animal use protocol (AUP #2017-0145). Targeted proteomics. A panel of 15 proteins having differential abundance in the untargeted proteomics data were selected for targeted measurements using product ion scans for representative peptides (Table 7). The relative abundance of a target protein was determined by quantifying the corresponding peptide peak's AUCs in MultiQuant and normalizing the value by the sample protein weight.

liver proteome = experiment: Liver untargeted proteomics in WD mice
liver metabolome = experiment: Liver untargeted metabolomics in WD mice

O=C([O-])Cc1c[nH]c2ccccc12.[Na+] [I3A, Indole-3-acetate sodium salt]
liver AMPK and p-AMPK levels (AMPK): increased both AMPK as well as p-AMPK
decrease of Fasn in liver ([1]; I3A treated vs WD): 86%
abundance of antioxidant enzymes catalase (CatB) and glutathione peroxidase 1 (Gpx1) in liver ([1]; I3A treatment, WD-50 and WD-100): dose-dependent decrease
abundance of acetyl-CoA carboxylase-2 (Acab) in liver ([1]; WD-100 group vs WD): not significantly different
abundance of fatty acid synthase (Fasn) in liver ([1]; WD-100 group vs WD): decreased in the WD-100 group compared to the WD group
abundance of mitochondrial β-oxidation enzymes Acadl, Acadm, Acads and Hadh in liver ([1]; WD-100 group vs WD): significantly decreased in the WD-100 group compared to WD
abundance of peroxisomal β-oxidation enzymes Acox1, Acaala and Acaalb in liver ([1]; WD-100 group vs WD): A similar trend was observed
abundance of CD36 in liver ([1]; WD-100 group vs WD, sodium salt): did not affect CD36 abundance; also recorded: decreased, but not significantly
liver protein abundance profile (PLS-DA) (liver proteome; WD-50 group vs WD): not significantly different from the WD group
liver protein abundance profile (PLS-DA) (liver proteome; WD-100 group vs WD, p<0.001): significantly different from the WD group
liver metabolome PLS-DA projection (liver metabolome; high dose (WD-100) group vs CN and WD, p<0.005 and p<0.0005): only partially overlapped with both CN and the WD group
WD-induced changes in 516 significant annotated liver metabolite features (hierarchical clustering) (liver metabolome; high dose of I3A): generally reversed these changes
liver metabolome PLS-DA projection (liver metabolome; low dose (WD-50) group vs WD, p=0.26): overlapped completely with the WD group
